Converted amounts (≈) assume the structure as drawn.
Assays:
Candida albicans = assay: Antifungal activity against Candida albicans assessed as reduction in fungal cell growth incubated for 48 hrs by serial dilution assay; type: functional
Escherichia coli [1] = assay: Antibacterial activity against Escherichia coli assessed as reduction in bacterial cell viability incubated for 24 hrs by serial dilution assay; type: functional
Bacillus subtilis = assay: Antibacterial activity against Bacillus subtilis assessed as reduction in bacterial cell viability by well plate method; type: functional
Escherichia coli [2] = assay: Antibacterial activity against Escherichia coli assessed as reduction in bacterial cell viability by well plate method; type: functional
[3] = target: T1, Tyrosinase (Agaricus bisporus) (UniProt O42713); assay: Inhibition of mushroom tyrosinase at 25 uM using L-tyrosine as substrate incubated for 30 mins relative to control
T1 sequence (whole entry): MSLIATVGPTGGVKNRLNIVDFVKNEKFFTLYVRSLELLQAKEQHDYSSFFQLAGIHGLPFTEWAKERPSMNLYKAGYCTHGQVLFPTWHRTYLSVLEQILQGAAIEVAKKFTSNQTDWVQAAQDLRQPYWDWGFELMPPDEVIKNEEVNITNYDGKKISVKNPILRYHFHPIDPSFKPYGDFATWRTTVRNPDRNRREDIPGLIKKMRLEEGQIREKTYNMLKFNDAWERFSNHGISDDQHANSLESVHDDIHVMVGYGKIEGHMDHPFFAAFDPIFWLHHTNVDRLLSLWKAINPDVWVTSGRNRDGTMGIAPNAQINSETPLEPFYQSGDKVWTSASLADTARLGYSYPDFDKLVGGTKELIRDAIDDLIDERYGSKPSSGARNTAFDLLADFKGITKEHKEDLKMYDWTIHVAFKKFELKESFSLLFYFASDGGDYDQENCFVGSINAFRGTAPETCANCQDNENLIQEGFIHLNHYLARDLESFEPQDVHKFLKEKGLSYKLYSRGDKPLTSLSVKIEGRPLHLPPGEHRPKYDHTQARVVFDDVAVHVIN

B2 bradykinin receptor = target: T2, B2 bradykinin receptor (Cavia porcellus, UniProt O70526); assay: Displacement of [3H]BK from Bradykinin B2 Receptor in guinea pig ileum by liquid scintillation counter; type: tissue-based
T2 sequence (O70526 whole entry): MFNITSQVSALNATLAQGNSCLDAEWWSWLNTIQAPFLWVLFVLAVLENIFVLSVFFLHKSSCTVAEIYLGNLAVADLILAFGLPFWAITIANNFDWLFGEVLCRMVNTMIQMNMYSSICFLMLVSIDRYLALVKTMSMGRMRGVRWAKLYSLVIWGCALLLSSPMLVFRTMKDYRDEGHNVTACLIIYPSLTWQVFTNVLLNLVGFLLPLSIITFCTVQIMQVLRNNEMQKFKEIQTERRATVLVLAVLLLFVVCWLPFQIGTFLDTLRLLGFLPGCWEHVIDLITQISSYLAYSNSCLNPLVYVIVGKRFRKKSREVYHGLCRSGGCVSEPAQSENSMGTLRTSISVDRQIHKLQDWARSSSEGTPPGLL

[4] = Inhibition of recombinant LFA1/ICAM1 (unknown origin) interaction in JY-8 cells expressing LFA1 incubated for 45 mins by fluorescence based assay; type: cell-based, Homo sapiens
[5] = Inhibition of recombinant LFA1/ICAM1 (unknown origin) interaction incubated for 1 hr by time resolved fluorimetry; design: species or system Homo sapiens
[6] = target: Vascular endothelial growth factor receptor 2 (Homo sapiens, UniProt P35968); assay: Inhibition of VEGFR (unknown origin)
[7] = target: Epidermal growth factor receptor (Homo sapiens, UniProt P00533); assay: Inhibition of EGFR (unknown origin)
HeLa S3 = assay: Antiproliferative activity against human HeLaS3 cells assessed as reduction in cell viability incubated for 72 hrs by cell counter method; type: functional, cell-based; conditions: HeLa S3, 72 h
MGC-803 = assay: Antiproliferative activity against human MGC803 cells; type: functional, cell-based
DU-145 [8] = assay: Antiproliferative activity against human DU145 cells assessed as reduction in cell viability incubated for 48 hrs by MTT assay; type: functional, cell-based; conditions: DU-145, 48 h
P-selectin = target: T3, P-selectin (Homo sapiens, UniProt P16109); assay: Inhibition of P-selectin (unknown origin) incubated for 30 mins by ELISA
T3 sequence (P16109 whole entry): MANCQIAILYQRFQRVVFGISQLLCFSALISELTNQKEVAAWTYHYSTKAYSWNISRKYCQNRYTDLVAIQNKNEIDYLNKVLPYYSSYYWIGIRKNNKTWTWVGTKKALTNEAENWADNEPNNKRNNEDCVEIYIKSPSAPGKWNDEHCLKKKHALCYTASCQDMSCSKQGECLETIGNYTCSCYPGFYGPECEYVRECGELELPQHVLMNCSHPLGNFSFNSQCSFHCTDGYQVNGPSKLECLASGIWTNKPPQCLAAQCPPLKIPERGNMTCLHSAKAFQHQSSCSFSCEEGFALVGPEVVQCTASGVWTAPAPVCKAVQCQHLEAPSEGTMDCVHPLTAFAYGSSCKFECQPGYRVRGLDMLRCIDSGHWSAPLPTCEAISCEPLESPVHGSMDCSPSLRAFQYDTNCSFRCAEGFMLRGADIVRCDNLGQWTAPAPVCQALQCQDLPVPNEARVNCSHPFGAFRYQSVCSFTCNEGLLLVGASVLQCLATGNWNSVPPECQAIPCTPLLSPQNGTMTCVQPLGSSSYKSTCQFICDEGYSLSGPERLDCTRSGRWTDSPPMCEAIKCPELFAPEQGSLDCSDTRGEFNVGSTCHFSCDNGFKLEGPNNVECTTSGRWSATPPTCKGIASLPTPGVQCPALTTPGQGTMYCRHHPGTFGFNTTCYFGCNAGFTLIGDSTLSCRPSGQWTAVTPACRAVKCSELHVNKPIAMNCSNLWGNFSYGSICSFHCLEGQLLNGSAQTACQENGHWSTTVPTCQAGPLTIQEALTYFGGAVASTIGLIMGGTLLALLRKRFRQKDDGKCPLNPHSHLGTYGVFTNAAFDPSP

[9] = Inhibition of LFA1/ICAM1 (unknown origin) interaction; design: species or system Homo sapiens
Staphylococcus aureus = assay: Antibacterial activity against Staphylococcus aureus ATCC 6538 assessed as reduction in bacterial cell viability incubated for 24 hrs by broth microdilution assay; type: functional, organism-based; conditions: ATCC 6538, 24 h
MCF7 = assay: Antiproliferative activity against human MCF7 cells assessed as reduction in cell viability incubated for 48 hrs by MTT assay; type: functional, cell-based; conditions: MCF7, 48 h
DU-145 [10] = assay: Antiproliferative activity against human DU145 cells; type: functional, cell-based
Beta-secretase 1 = Beta-secretase 1 (Homo sapiens, UniProt P56817); assay: Inhibition of recombinant human BACE 1 using Rh-EVNL-DAEFK-Quencher as substrate incubated for 60 mins by fluorescence based assay
U-937 = assay: Cell cycle arrest in human U937 cells assessed as increase in accumulation in G2 phase incubated for 6 hrs by propidium iodide staining based flow cytometry; type: functional; conditions: U-937, 6 h
P388 = assay: Antiproliferative activity against mouse P388 cells assessed as reduction in cell viability by MTT assay; type: functional, cell-based
HT-29 = assay: Antiproliferative activity against human HT-29 cells assessed as reduction in cell viability by MTT assay; type: functional, cell-based
[11] = target: Telomerase reverse transcriptase (Homo sapiens, UniProt O14746); assay: Inhibition of telomerase (unknown origin)
[12] = Antioxidant activity assessed as DPPH free radical scavenging activity by spectrophotometry; type: functional
[13] = target: T4, Amine oxidase [flavin-containing] B (Homo sapiens, UniProt P27338); assay: Inhibition of recombinant human MAOB using kynuramine as substrate preincubated with substrate for 10 mins followed by enzyme addition and measured after 20 mins by fluorescence spectrophotometry
T4 sequence (P27338 whole entry): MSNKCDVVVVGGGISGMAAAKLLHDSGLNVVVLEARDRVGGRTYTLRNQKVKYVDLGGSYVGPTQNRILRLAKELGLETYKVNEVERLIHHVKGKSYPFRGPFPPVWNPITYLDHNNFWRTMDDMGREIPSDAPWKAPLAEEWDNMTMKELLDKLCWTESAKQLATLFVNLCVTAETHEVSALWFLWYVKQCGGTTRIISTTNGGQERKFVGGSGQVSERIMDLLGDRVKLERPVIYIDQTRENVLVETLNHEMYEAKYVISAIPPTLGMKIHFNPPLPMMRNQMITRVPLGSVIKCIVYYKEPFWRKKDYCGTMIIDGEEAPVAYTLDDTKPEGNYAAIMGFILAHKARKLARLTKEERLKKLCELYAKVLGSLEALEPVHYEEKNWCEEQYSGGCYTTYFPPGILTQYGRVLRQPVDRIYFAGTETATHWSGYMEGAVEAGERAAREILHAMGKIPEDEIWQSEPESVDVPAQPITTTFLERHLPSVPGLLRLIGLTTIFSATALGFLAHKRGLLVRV

Sequence of Vascular endothelial growth factor receptor 2 (P35968 whole entry): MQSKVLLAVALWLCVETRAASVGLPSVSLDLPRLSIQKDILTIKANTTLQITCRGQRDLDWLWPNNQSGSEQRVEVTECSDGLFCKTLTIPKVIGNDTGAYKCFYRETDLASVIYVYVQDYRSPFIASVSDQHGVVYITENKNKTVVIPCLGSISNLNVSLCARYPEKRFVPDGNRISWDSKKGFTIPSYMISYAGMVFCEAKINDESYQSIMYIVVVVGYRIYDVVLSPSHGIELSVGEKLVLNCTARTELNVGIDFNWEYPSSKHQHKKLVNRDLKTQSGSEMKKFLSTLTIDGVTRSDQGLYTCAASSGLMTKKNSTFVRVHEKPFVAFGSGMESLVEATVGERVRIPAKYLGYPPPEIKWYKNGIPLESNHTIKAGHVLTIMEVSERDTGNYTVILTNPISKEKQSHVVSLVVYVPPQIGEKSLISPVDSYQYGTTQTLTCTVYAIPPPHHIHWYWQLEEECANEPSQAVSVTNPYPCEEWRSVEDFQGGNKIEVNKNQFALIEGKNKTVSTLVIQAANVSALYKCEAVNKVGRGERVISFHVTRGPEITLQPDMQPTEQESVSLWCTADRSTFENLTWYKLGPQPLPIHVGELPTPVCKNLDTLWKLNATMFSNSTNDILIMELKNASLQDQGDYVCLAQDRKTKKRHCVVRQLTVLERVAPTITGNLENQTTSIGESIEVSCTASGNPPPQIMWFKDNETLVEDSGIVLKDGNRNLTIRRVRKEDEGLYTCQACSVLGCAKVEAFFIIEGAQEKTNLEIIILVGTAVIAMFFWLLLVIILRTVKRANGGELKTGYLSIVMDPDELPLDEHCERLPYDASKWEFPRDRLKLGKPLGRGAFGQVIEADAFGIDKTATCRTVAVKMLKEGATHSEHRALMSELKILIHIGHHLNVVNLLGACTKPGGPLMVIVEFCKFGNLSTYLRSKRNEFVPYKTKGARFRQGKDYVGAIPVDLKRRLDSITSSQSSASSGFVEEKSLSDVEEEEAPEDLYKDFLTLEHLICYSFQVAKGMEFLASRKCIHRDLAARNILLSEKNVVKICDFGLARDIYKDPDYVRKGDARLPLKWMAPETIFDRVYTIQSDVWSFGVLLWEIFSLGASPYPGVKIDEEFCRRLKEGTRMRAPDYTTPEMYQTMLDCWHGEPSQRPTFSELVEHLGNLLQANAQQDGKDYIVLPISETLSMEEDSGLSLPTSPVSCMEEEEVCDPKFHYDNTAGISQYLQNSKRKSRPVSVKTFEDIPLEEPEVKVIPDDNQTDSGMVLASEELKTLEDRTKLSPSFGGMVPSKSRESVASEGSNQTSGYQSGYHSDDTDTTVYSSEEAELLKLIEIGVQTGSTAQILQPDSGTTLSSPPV
Sequence of Epidermal growth factor receptor (P00533 whole entry): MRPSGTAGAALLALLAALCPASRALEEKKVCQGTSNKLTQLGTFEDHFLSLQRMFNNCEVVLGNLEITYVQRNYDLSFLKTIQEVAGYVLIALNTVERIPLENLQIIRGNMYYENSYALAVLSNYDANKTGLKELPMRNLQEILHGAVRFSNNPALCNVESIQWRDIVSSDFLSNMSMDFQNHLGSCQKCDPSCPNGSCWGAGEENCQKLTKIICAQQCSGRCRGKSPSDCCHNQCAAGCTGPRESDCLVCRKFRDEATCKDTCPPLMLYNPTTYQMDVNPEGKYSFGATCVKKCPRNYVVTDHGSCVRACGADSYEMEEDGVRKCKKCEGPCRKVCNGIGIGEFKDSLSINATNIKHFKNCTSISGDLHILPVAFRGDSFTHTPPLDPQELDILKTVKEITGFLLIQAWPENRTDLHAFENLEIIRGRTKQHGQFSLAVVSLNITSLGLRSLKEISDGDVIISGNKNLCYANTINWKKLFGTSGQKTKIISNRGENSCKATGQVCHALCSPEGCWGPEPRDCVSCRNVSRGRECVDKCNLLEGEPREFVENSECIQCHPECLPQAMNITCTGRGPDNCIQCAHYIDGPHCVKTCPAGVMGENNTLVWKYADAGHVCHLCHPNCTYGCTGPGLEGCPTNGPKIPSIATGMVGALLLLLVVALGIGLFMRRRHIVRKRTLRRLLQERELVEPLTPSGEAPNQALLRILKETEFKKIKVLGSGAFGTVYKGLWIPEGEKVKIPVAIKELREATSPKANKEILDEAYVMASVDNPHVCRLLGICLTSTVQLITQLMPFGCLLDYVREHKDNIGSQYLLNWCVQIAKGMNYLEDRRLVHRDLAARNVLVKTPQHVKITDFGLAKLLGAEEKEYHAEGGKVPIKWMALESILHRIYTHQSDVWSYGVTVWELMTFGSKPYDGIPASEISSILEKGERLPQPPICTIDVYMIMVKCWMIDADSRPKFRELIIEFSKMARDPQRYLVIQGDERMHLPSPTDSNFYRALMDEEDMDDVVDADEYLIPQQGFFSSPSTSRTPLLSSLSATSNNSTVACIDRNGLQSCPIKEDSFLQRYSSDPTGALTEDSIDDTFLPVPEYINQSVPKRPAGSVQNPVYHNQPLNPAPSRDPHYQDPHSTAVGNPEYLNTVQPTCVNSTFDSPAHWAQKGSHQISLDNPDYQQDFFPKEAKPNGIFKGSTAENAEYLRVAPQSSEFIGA
Sequence of Telomerase reverse transcriptase (O14746 whole entry): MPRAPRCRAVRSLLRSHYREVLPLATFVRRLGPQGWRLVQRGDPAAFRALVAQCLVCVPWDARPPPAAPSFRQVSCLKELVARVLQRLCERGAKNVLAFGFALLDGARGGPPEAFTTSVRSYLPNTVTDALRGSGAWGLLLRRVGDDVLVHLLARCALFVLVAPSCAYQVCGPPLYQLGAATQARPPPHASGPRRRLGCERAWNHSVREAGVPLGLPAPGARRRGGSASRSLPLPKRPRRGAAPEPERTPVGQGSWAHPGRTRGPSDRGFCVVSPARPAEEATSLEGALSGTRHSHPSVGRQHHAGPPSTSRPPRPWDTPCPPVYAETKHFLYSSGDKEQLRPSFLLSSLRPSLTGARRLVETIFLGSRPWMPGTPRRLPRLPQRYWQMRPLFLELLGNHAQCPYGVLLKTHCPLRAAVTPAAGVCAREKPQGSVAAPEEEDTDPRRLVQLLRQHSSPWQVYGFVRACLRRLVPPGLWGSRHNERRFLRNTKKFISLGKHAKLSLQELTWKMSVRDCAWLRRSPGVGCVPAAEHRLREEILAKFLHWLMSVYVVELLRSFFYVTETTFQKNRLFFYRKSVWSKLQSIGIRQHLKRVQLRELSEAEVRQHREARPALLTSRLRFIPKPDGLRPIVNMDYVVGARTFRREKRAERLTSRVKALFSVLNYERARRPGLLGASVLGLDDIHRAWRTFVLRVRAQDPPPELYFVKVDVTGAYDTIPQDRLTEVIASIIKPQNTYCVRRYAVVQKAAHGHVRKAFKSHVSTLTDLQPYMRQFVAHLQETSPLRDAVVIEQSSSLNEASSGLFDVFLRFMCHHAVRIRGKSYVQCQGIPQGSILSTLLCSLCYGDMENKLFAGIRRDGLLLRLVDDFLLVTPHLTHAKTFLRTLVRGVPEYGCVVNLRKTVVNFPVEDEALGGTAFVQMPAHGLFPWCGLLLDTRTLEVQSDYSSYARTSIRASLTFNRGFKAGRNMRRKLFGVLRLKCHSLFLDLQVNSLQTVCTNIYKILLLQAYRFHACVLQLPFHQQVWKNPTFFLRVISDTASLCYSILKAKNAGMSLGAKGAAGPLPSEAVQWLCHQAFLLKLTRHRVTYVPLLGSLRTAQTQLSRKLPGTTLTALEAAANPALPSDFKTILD
Sequence of Beta-secretase 1 (P56817 whole entry): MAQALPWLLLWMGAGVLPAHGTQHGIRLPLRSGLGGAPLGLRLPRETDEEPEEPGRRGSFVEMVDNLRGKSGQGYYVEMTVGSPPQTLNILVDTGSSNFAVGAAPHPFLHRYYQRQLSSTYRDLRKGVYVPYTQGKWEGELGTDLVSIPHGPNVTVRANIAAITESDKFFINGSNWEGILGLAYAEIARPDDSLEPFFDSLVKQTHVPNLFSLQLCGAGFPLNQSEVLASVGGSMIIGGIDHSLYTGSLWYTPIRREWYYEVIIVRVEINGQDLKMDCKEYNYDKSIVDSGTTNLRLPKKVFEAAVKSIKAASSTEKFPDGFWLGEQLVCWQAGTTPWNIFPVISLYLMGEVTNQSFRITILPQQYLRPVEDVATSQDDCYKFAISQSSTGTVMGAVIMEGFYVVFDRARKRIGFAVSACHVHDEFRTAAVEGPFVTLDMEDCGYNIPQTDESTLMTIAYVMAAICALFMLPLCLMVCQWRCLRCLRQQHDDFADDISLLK

## CN(C)C(=O)/C=C/c1ccccc1
Candida albicans
  log(1/MIC): 2.43
Escherichia coli [1]
  log(1/MIC): 2.43

## COc1ccc(/C=C/C(=O)N2CCOCC2)c(OC)c1OC
Bacillus subtilis
  MIC: 6.12 µM (≈ 1.88 µg/mL)
Escherichia coli [2]
  MIC: 6.12 µM (≈ 1.88 µg/mL)

## O=C(/C=C/c1ccc(O)cc1O)Nc1ccccc1
[3]
  inhibition: 93.7%

## CNC(=O)c1ccc(/C=C/C(=O)NCC(=O)N(C)c2ccc(Cl)c(COc3cccc4ccc(C)nc34)c2Cl)cn1
B2 bradykinin receptor
  IC50: 0.00046 µM

## COc1ccccc1Sc1ccc(/C=C/C(=O)N2CCC(C(=O)O)CC2)c(C(F)(F)F)c1C(F)(F)F
[4]
  IC50: 0.0001 µM

## COc1cc(/C=C/C(=O)N2CCOCC2)cc(OC)c1OC
Bacillus subtilis
  MIC: 25 µM (≈ 7.68 µg/mL)
Escherichia coli [2]
  MIC: 25 µM (≈ 7.68 µg/mL)

## CC(=O)N1CCN(C(=O)/C=C/c2ccc(Sc3ccccc3C(C)C)c([N+](=O)[O-])c2)CC1 [A-286982]
[5]
  IC50: 0.035 µM

## COc1ccc(/C=C/C(=O)Nc2cc3c(Nc4ccc(F)c(Cl)c4)ncnc3cc2O[C@@H]2CCOC2)cc1
[6]
  IC50: 0.0036 µM
[7]
  IC50: 0.009 µM

## COc1ccc(/C=C/C(=O)N2C[C@H]3C[C@@]34C2=CC(=O)c2[nH]c(C)c(Br)c24)cc1
HeLa S3
  IC50: 65 pM

## CCCc1n[nH]c(C(N)=O)c1NC(=O)/C=C/c1cc(OC)c(OC)c(OC)c1
MGC-803
  IC50: 4.24 µM

## O=C(/C=C/c1ccc(O)cc1O)NC1CCCC1
[3]
  inhibition: 94.1%

## C=CCOc1cc(/C=C/C(=O)Nc2cc(OC)c(OC)c(OC)c2)ccc1N/C=C\C(=O)c1cc(N)c(OC)c(OC)c1
DU-145 [8]
  IC50: 7.48 µM

## CCCCCCCCCCCCCCCCNC(=O)/C=C/c1ccc(-c2[nH]c(-c3ccc(C4=NOC(C(=O)O)C4)cc3)nc2-c2ccc(/C=C/C(=O)O)cc2)cc1 (stereo unspecified)
P-selectin
  IC50: 0.3 µM

## CC(=O)N1CCN(C(=O)/C=C/c2ccc(Sc3ccc4c(c3)OCCO4)c(Cl)c2)CC1
[9]
  IC50: 0.04 µM

## COc1cc(/C=C/C(=O)NNC(=O)c2ccccc2)cc(OC)c1OC
Staphylococcus aureus
  IC50: 85.2 µM

## CCCCCCCCCCCCNC(=O)/C=C/c1ccccc1 [N-DODECYLCINNAMAMIDE]
MCF7
  IC50: 11.1 µM

## O=C(O)C1CCCN(C(=O)/C=C/c2ccc(Sc3ccc4c(c3)OCCO4)c(C(F)(F)F)c2)C1 (stereo unspecified)
[5]
  IC50: 0.025 µM

## C=CCOc1cc(/C=C/C(=O)Nc2cc(OC)c(OC)c(OC)c2)ccc1N/C=C\C(=O)c1ccc(OC)c([N+](=O)[O-])c1
DU-145 [8]
  IC50: 8.91 µM

## O=C(/C=C/c1ccc(O)cc1)N1Cc2ccccc2[C@@H](OCc2ccccc2)[C@@H]1CO
DU-145 [10]
  IC50: 2.08 µM

## O=C(/C=C/c1ccccc1)NCCc1cc2cc(O)ccc2[nH]1
Beta-secretase 1
  IC50: 86.7 µM

## CCCc1n[nH]c(C(N)=O)c1NC(=O)/C=C/c1ccccc1
MGC-803
  IC50: 3.44 µM

## O=C(/C=C/c1ccccc1)Nc1ccc([N+](=O)[O-])cc1
Candida albicans
  log(1/MIC): 2.43
Escherichia coli [1]
  log(1/MIC): 2.43

## COc1ccc(/C=C/C(=O)NC23CC4CC(CC(C4)C2)C3)c2ccccc12
U-937
  IC50: 7.1 µM

## O=C(O)C1CCN(C(=O)/C=C/c2ccc(Sc3ccc4c(c3)OCCO4)c(C(F)(F)F)c2C(F)(F)F)CC1
[4]
  IC50: 0.0005 µM

## COc1cc(/C=C/C(=O)Nc2cc3c(Nc4ccc(F)c(Cl)c4)ncnc3cc2O[C@@H]2CCOC2)cc(OC)c1OC
[6]
  IC50: 0.0036 µM
[7]
  IC50: 0.009 µM

## O=C(/C=C/c1ccc(O)cc1O)N1CCOCC1
[3]
  inhibition: 95.7%

## COc1cc(/C=C/C(=O)NCCc2cc(OC)c(O)c(OC)c2)ccc1O
P388
  IC50: 4 µM
HT-29
  IC50: 4 µM

## CCCc1n[nH]c(C(N)=O)c1NC(=O)/C=C/c1ccco1
MGC-803
  IC50: 3.01 µM
[11]
  IC50: 1.02 µM

## O=C(/C=C/c1ccc(O)c(O)c1)NCCc1c[nH]c2ccc(O)cc12 [N-CAFFEOYLSEROTONIN]
[12]
  EC50: 8.1 µM

## CN1CCN(C(=O)/C=C/c2ccc(O)cc2O)CC1
[3]
  inhibition: 94.4%

## CC(C)(C)NC(=O)/C=C/c1ccccc1 [N-TERT-BUTYLCINNAMAMIDE]
MCF7
  IC50: 13.4 µM

## O=C(/C=C/c1ccccc1)N1CCCCC1
Candida albicans
  log(1/MIC): 2.43
Escherichia coli [1]
  log(1/MIC): 2.43

## CC(=O)N1CCN(C(=O)/C=C/c2ccc(Sc3ccc(Cl)cc3Cl)c([N+](=O)[O-])c2)CC1
[5]
  IC50: 0.09 µM

## O=C(/C=C/c1ccc(O)cc1)NCCc1c[nH]c2ccc(O)cc12 [N-P-COUMAROYL SEROTONIN]
[13]
  EC50: 1.2 µM

## COc1ccc(/C=C/C(=O)N2C[C@H]3C[C@@]34C2=CC(=O)c2[nH]c(C)c(Cl)c24)cc1
HeLa S3
  IC50: 29 pM

## CCc1ccccc1Sc1ccc(/C=C/C(=O)N2CCN(C(C)=O)CC2)cc1[N+](=O)[O-]
[4]
  IC50: 0.065 µM

## COc1cccc(/C=C/C(=O)Nc2cc(OC)c(OC)c(OC)c2)c1
U-937
  IC50: 8 µM
